# Assay results reported in patent publication US7351857B2, “Methods of using substituted tetralins and indanes” (Janssen Pharmaceutica N.V., priority 2002, dated 2008).
# Experiments:
# [1] = molecular target: T1, PPARδ (Homo sapiens, UniProt Q03181); test: Transfection assay for PPARδ receptors (PPAR-Gal4 / Gal4-luciferase reporter in HEK293 cells); type: cell-based; conditions: unbracketed values, PPARδ standard FI = 36.1
# T1 sequence (Q03181 171-441 limits assumed): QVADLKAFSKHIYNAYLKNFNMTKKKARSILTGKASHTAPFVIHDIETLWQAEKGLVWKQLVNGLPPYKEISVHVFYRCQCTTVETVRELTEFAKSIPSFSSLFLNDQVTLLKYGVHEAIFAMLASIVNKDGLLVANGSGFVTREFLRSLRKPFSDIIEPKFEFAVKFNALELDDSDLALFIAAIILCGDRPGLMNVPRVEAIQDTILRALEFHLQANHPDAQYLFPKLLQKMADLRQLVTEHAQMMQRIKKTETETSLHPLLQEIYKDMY
# Protocol: HEK293 cells were grown in DMEM/F-12 Media supplemented with 10% FBS and glutamine (GIBCOBRL). The cells were co-transfected with DNA for PPAR-Gal4 receptor and Gal4-Luciferase Reporter using the DMRIE-C Reagent. On the following day, the DNA-containing medium were replaced with 5% Charcoal treated FBS growth medium. After six hours, cells were seeded in 96 well plate and incubated at 37° C. in CO2 incubator overnight. Cells were challenged by test compounds and incubated for 24 hours at 37° C. in 5% CO2 incubator. Luciferase activity was assayed using the Steady-Glo Luciferase Assay Kit from Promega. DMRIE-C Reagent was purchased from GIBCO Cat. No. 10459-014. OPTI-MEM I Reduced Serum Medium was purchased from GIBCO Cat. No. 31985. Steady-Glo Luciferase Assay Kit was obtained from Promega Part# E254B.
# [2] = molecular target: T2, PPARγ (Homo sapiens, UniProt P37231); test: aP2 assay for PPAR gamma agonists (bDNA aP2 mRNA in preadipocytes); type: cell-based; conditions: unbracketed values; PPARγ standard FI = 70.3
# T2 construct: Following the challenge of the preadipocytes, cells may be lysed with lysis buffer; endogenous in cells; host or cells: preadipocytes
# T2 sequence (P37231 1-505): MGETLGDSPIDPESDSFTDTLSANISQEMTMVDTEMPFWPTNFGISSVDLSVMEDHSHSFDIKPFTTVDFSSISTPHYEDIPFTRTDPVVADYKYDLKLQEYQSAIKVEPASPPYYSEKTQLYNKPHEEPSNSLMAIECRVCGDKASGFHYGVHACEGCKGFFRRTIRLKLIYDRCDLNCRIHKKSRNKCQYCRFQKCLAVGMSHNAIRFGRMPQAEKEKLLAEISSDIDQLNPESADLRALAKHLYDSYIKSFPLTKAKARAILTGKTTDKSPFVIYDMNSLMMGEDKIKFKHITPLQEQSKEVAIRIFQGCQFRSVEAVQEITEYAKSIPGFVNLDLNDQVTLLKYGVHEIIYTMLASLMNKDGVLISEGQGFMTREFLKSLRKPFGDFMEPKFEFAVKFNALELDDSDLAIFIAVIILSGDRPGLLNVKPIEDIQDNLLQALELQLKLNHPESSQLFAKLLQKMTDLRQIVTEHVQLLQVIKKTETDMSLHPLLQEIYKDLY
# Protocol: The procedure is described in detail in Burris et al., Molecular Endocrinology, 1999, 13:410, which is hereby incorporated by reference in its entirety, and aP2 assay results of agonist intrinsic activity may be presented as fold increase over vehicle in induction of aP2 mRNA production.
# Twenty-four hours after the initial seeding of the 96-well plates by hand (around 20,000/well), the differentiation assay may be initiated. Medium may be removed and replaced with 150 μl of differentiation medium containing vehicle (DMSO) or test compounds. Cells may be returned to incubator for 24 hours culture. At the termination of the challenge, medium may be removed and 100 ul of lysis buffer may be added to initiate the bDNA aP2 mRNA assay. The branched DNA assay may be performed according to the manufacturer's protocol (Bayer Diagnostics; Emeryville, Calif.). Result may be expressed as the fold increase of aP2 mRNA production activated over vehicle controls. EC50's and Emax may be determined by non-linear regression with a sigmoidal fit curve.
# Following the challenge of the preadipocytes, cells may be lysed with lysis buffer (Bayer Diagnostics) containing the aP2 oligonucleotides. After a 15 minute incubation at 53° C. or 30 minutes at 37° C. incubator, 70 ul of the lysis buffer from each well may be added to a corresponding capture well (preincubated with 70 ul of blocking buffer (Bayer Diagnostics)). The capture plate may be incubated overnight at 53° C. in a plate incubator (Bayer Diagnostics). After this incubation, the bDNA and labeled probes may be annealed as directed by the manufacturer. Following a 30-minute incubation with the luminescent alkaline phosphatase substrate, dioxitane, the luminescence may be quantitated in a Dynex MLX microtiter plate luminometer. Oligonucleotide probes designed to anneal to the aP2 mRNA and function in the bDNA mRNA detection system are designed with ProbeDesigner software (Bayer Diagnostics). This software package analyzes a target sequence of interest with a series of algorithms in order to determine which regions of the sequence can perform as locations for capture, label, or spacer probe annealing. The sequences of the oligonucleotides are as follows: […]
# [3] = system: ob/ob mice; test: 11 day oral dosing in female ob/ob mice: serum TG, glucose, insulin; type: in vivo; conditions: 1.0 mpk, oral once daily 11 days, % change vs vehicle
# Protocol: (Female ob/ob mice (C57 BU6J-Lep^ob, Jackson Labs, Bar Harbor, Me.), 7 weeks of age, were housed two per cage in solid-bottomed shoe box cages. Room temperature was maintained at 68-72° F. and humidity at 50-65%. Room lighting was on a 12-hour light/12-hour dark cycle. Mice were fed a certified NIH Rat and Mouse diet #5K50 (P M I Nutrition Int'l, St. Louis, Mo., via W. F. Fisher and Son, Inc., Bound Brook, N.J.). Food and water were supplied ad libitum.
# The compound was prepared as suspensions in 0.5% hydroxypropyl-methylcellulose (Dow Chemical, Midland, Mich.). The dosing volume was 10 mL/kg of body weight. Female ob/ob diabetic mice (8/group) were orally gavaged once daily for 11 days with either 0.5% methylcellulose in dH2O (vehicle) or PPAR agonist at 0.003, 0.01, 0.03, 0.1, 0.3, 1 mg/kg/day. Body weight was measured in the mornings on Day 1, prior to dosing, and on Day 12 before bleeding. 18 hours after the final dose for each group, the mice were anesthetized with CO2/O2 (70%:30%) and bled by retro-orbital sinus puncture into micro-tubes containing clog activator and then put in ice. The serum samples were prepared by centrifugation. Serum glucose and triglycerides were determined by using COBAS Mira Plus blood chemistry analyzer (Roche Diagnostics, N.J.). Serum insulin and free fatty acids were measured by using ALPCO insulin ELISA kit and Wako NEFA kit, respectively. […]
Compound,PPARδ FI (fold induction) [1],PPARγ FI (fold induction) [2],Δ Plasma Glucose [3],Δ Plasma Insulin [3]
"CCN(C(=O)Nc1ccc(OC(F)(F)F)cc1)C1Cc2ccc(SC(C)(C)C(=O)O)cc2C1 (centres unmarked) [Example 2, 2-{2-[1-Ethyl-3-(4-trifluoromethoxyphenyl)ureido]indan-5-ylsulfanyl}-2-methylpropionic acid]",4.2,0.24,–,–
"CCCCCN(C(=O)Nc1ccc(SC(F)(F)F)cc1)C1Cc2ccc(SC(C)(C)C(=O)O)cc2C1 (centres unmarked) [Example 5, 2-Methyl-2-{2-[1-pentyl-3-(4-trifluoromethylsulfanylphenyl)ureido]indan-5-ylsulfanyl}propionic acid]",2.5,4.0,–,–
"CCN(C(=O)Nc1ccc(C(C)C)cc1)C1Cc2ccc(SC(C)(C)C(=O)O)cc2C1 (centres unmarked) [Example 6, 2-{2-[1-Ethyl-3-(4-isopropylphenyl)ureido]indan-5-ylsulfanyl}-2-methylpropionic acid]",3.6,1.9,–,–
"CCCCCN(C(=O)Nc1ccc(OC(F)(F)F)cc1)C1Cc2ccc(SC(C)(C)C(=O)O)cc2C1 (centres unmarked) [Example 8, 2-Methyl-2-{2-[1-pentyl-3-(4-trifluoromethoxyphenyl)ureido]indan-5-ylsulfanyl}-2-methylpropionic acid]",5.9,1.9,–,–
"CCCCCN(C(=O)Nc1ccc(N(C)C)cc1)C1Cc2ccc(SC(C)(C)C(=O)O)cc2C1 (centres unmarked) [Example 9, 2-{2-[3-(4-Dimethylaminophenyl)-1-pentylureido]indan-5-ylsulfanyl}-2-methylpropionic acid]",1.0,2.9,–,–
"CCCCCCN(C(=O)Nc1ccc(OC(F)(F)F)cc1)C1Cc2ccc(SC(C)(C)C(=O)O)cc2C1 (centres unmarked) [Example 14, 2-Methyl-2-{2-[1-hexyl-3-(4-trifluoromethoxyphenyl)ureido]indan-5-ylsulfanyl}propionic acid]",1.3,0.3,–,–
"CCN(C(=O)Nc1ccc(OC(F)(F)F)cc1)C1CCc2cc(SC(C)(C)C(=O)O)c(F)cc2C1 (centres unmarked) [Example 50, 2-{6-[1-Ethyl-3-(4-trifluoromethoxyphenyl)ureido]-3-fluoro-5,6,7,8-tetrahydronaphthalen-2-ylsulfanyl}-2-methylpropionic acid]",–,–,−74%,−93%
